Measured values reported in patent US11091501B2, “Heterocyclic compounds as RSV inhibitors” (Enanta Pharmaceuticals, Inc., priority 2017, dated 2021).

test system: Human RSV-A (“Long” strain); test: RSV in vitro cytoprotection assay (CPE, ATPlite) in HEp-2 cells; assay type: cell-based; conditions: human respiratory syncytial virus, 96 h; HEp-2 cells, 4-day incubation, ATPlite readout; read-out: Human RSV-A (“Long” strain) EC50
From the text: RSV is a single stranded negative sense RNA virus that causes respiratory tract infections which can be dangerous to infants, the elderly, and immunosuppressed individuals. Currently there is no vaccine, and therapeutic options are both costly and of limited effectiveness. These approved treatments are Ribavirin, and Palivizumab/Synagis (a monoclonal antibody). RSV has two genotypes, A and B, which differ primarily in the structure of the virus' surface “G” attachment protein. Our current primary screen focuses on RSV-A and uses an in vitro cytoprotection assay where compounds are added in 2-fold dilutions to cells which are then subjected to fully replicative viral particles. Cell viability is measured several days later along with separate measurements of compound cytotoxicity. This report focuses on the results of our most recent screening of compounds.
HEp-2 cells, (originally derived from tumors grown in irradiated-cortisonised weanling rats that had been injected with epidermoid carcinoma tissue from a person's larynx, but later found to be indistinguishable from HeLa cells by PCR DNA analysis), were used for the culturing of genotype A, “Long” strain RSV. Flasks were inoculated with RSV and viral stocks were collected once cytopathic effect (CPE) was greater than 90%. Viral stocks in 25% sucrose media were snap frozen using liquid nitrogen to increase viral stability. Viral stock titers were quantified by tissue culture infectious dose 50% (TCID50) using 8,000 cells per well and 3-fold viral dilutions across a 96-well plate, cultured for 4 days.
Following extensive parameter testing, the final assay is run as follows: HEp-2 cells are seeded into the inner 60 wells of a 96-well plate at 8,000 cells per well in a volume of 50 μL using Growth Media (DMEM without phenol red, 1% L-Glut, 1% Penn/Strep, 1% nonessential amino acids, 10% FBS). 2-Fold serial dilutions of control and test compounds are added to the wells in duplicate in a total volume of 25 μL. Viral stock is then added to the wells in a volume of […] the total volume of each well to 100 μL. Each 96-well plate has a control column of 6 wells with cells and virus but no compound (negative control, max CPE), a column with cells but no compound or virus (positive control, minimum CPE), and a column with no cells or virus or compound (background plate/reagent control). The control wells with cells but no virus are given an additional 25 uL of growth media containing an equal quantity of sucrose as those wells receiving the viral stock in order to keep consistent in media and volume conditions. The outer wells of the plate are filled with 125 μL of growth media to act as a thermal and evaporative moat around the test wells. Following a 4-day incubation period, the plates are read using ATPlite (50 uL added per well), which quantifies the amount of ATP (a measure of cell health) present in each well. Assay plates are read using the Envision luminometer. In parallel, cytotoxicity is examined on an additional 96-well plate treated in an identical manner, but substituting the 25 μL of viral stock for 25 μL of growth media. […] EC50 ranges are as follows: A<0.01 μM; B 0.01-0.05 μM; C>0.05 μM.

Row | SMILES | EC50 [nM]
1 | Cc1cnc(N2CC3(CCOCC3)C2)c(C(=O)Nc2ccc(C(=O)N3CCc4cc(-c5ncns5)sc4-c4ccc(F)cc43)cc2)c1 [Example 155] | < 10
2 | Cc1cnc(N2CC3(CCOCC3)C2)c(C(=O)Nc2ccc(C(=O)N3CCc4c(sc(-c5nc6cccc(F)c6[nH]5)c4F)-c4ccccc43)cc2)c1 [Example 206] | < 10
3 | Cc1ccc(C(=O)Nc2ccc(C(=O)N3CCc4sc(-c5nc6ccccc6[nH]5)cc4-c4ccccc43)cc2)c(N2CC3(CCOCC3)C2)n1 [Example 266] | < 10
4 | Cc1ccc(NC(=O)c2sc3c(c2F)CCN(C(=O)c2ccc(NC(=O)c4cc(C)cnc4N4CC5(CCOCC5)C4)cc2)c2ccccc2-3)nc1 [Example 228] | 10 to 50
5 | Cc1cnc(N2CC3(CCOCC3)C2)c(C(=O)Nc2ccc(C(=O)N3CCc4cc(-c5ccc6[nH]ncc6c5)sc4-c4ccc(F)cc43)cc2)c1 [Example 178] | < 10
6 | O=C(Nc1ccc(C(=O)N2CCc3cc(-c4nc5ccccc5[nH]4)sc3-c3c2ccc(F)c3F)cc1)c1cccnc1N1CC2(CCOCC2)C1 [Example 70] | 10 to 50
7 | Cc1ccnc(NC(=O)c2sc3c(c2F)CCN(C(=O)c2ccc(NC(=O)c4cc(C)cnc4N4CC5(CCOCC5)C4)cc2)c2ccccc2-3)c1 [Example 227] | 10 to 50
8 | Cc1cnc(N2CC3(CCOCC3)C2)c(C(=O)Nc2ccc(C(=O)N3CCc4sc(-c5nc6ccccc6[nH]5)cc4-c4ccccc43)cc2)c1 [Example 262] | 10 to 50
9 | Cc1cnc(N2CC3(CCOCC3)C2)c(C(=O)Nc2ccc(C(=O)N3CCc4cc(-c5nc(C)co5)sc4-c4ccc(F)cc43)cc2)c1 [Example 157] | 10 to 50
10 | Cc1ccc(C(=O)Nc2ccc(C(=O)N3CCc4c(sc(C(=O)Nc5c(F)cccc5F)c4F)-c4ccccc43)cc2)c(N2CC3(CCOCC3)C2)n1 [Example 213] | < 10
11 | Cc1cnc(N2CC3(CCOCC3)C2)c(C(=O)Nc2ccc(C(=O)N3CCc4c(sc(C(=O)Nc5cccc(F)c5F)c4F)-c4ccccc43)cc2)c1 [Example 216] | < 10
12 | O=C(Nc1c(F)cccc1F)c1nc2c(o1)-c1ccccc1N(C(=O)c1ccc(NC(=O)c3cccnc3N3CC4(CCOCC4)C3)cc1)CC2 [Example 108] | 10 to 50
13 | O=C(Nc1ccc(C(=O)N2CCc3c(sc(C(=O)Nc4c(Cl)cccc4Cl)c3F)-c3ccccc32)cc1)c1cccnc1N1CC2(CCOCC2)C1 [Example 90] | 10 to 50
14 | O=C(Nc1ccc(C(=O)N2CCc3c(sc(C(=O)Nc4c(F)cccc4F)c3F)-c3ccccc32)cc1)c1cccnc1N1CC2(CCOCC2)C1 [Example 88] | < 10
15 | Cc1cnc(N2CC3(CCOCC3)C2)c(C(=O)Nc2ccc(C(=O)N3CCc4c(sc(C(=O)Nc5ncc(C)s5)c4F)-c4ccccc43)cc2)c1 [Example 223] | 10 to 50
16 | O=C(Nc1c(F)cc(F)cc1F)c1cc2c(o1)-c1ccccc1N(C(=O)c1ccc(NC(=O)c3cc4c(nc3N3CC5(CCOCC5)C3)CCC4)cc1)CC2 [Example 253] | < 10
17 | O=C(Nc1c(F)cccc1F)c1cc2c(o1)-c1ccc(F)cc1N(C(=O)c1ccc(NC(=O)c3cc4c(nc3N3CC5(CCOCC5)C3)CCCC4)cc1)CC2 [Example 241] | < 10
18 | Cc1cnc(N2CC3(CCOCC3)C2)c(C(=O)Nc2ccc(C(=O)N3CCc4c(sc(-c5nc6ccccc6[nH]5)c4Cl)-c4ccccc43)cc2)c1 [Example 272] | < 10
19 | Cc1cnc(N2CC3(CCOCC3)C2)c(C(=O)Nc2ccc(C(=O)N3CCc4cc(-c5nnc(C)o5)sc4-c4cc(F)c(F)cc43)cc2)c1 [Example 193] | < 10
20 | Cc1cnc(N2CC3(CCOCC3)C2)c(C(=O)Nc2ccc(C(=O)N3CCc4c(sc(-c5nc6cccc(C(F)(F)F)c6[nH]5)c4F)-c4ccccc43)cc2)c1 [Example 203] | 10 to 50
21 | Cc1cnc(N2CC3(CCOCC3)C2)c(C(=O)Nc2ccc(C(=O)N3CCc4c(sc(C(=O)Nc5ncccc5C)c4F)-c4ccccc43)cc2)c1 [Example 226] | < 10

The remaining lines, values ahead:

Row | EC50 [nM] | SMILES
22 | 10 to 50 | O=C(Nc1c(F)cccc1F)c1cc2c(s1)-c1ccc(F)cc1N(C(=O)c1ccc(NC(=O)c3cc(C(F)F)cnc3N3CC4(CCOCC4)C3)cc1)CC2 [Example 146]
23 | < 10 | O=C(Nc1c(F)cc(F)cc1Cl)c1cc2c(s1)-c1ccc(F)cc1N(C(=O)c1ccc(NC(=O)c3cc4c(nc3N3CC5(CCOCC5)C3)CCC4)cc1)CC2 [Example 66]
24 | 10 to 50 | O=C(Nc1c(F)cccc1C(F)(F)F)c1cc2c(s1)-c1cc(F)c(F)cc1N(C(=O)c1ccc(NC(=O)c3cc(F)cnc3N3CC4(CCOCC4)C3)cc1)CC2 [Example 75]
25 | 10 to 50 | Cc1ccc(C(=O)Nc2ccc(C(=O)N3CCc4cc(C(=O)Nc5c(C)cccc5F)sc4-c4ccccc43)cc2)c(N2CC3(CCOCC3)C2)n1 [Example 276]
26 | < 10 | O=C(Nc1c(F)cccc1Cl)c1cc2c(s1)-c1ccc(F)cc1N(C(=O)c1ccc(NC(=O)c3cc4c(nc3N3CC5(CCOCC5)C3)CCOC4)cc1)CC2 [Example 137]
27 | < 10 | O=C(Nc1ncccc1C(F)(F)F)c1cc2c(s1)-c1ccc(F)cc1N(C(=O)c1ccc(NC(=O)c3cc4c(nc3N3CC5(CCOCC5)C3)CCC4)cc1)CC2 [Example 139]
28 | < 10 | O=C(Nc1c(F)cccc1F)c1cc2c(s1)-c1c(cc(F)c(F)c1F)N(C(=O)c1ccc(NC(=O)c3cccnc3N3CC4(CCOCC4)C3)cc1)CC2 [Example 78]
29 | < 10 | Cc1cnc(N2CC3(CCOCC3)C2)c(C(=O)Nc2ccc(C(=O)N3CCc4c(sc(NC(=O)c5c(F)cccc5Cl)c4F)-c4ccccc43)cc2)c1 [Example 305]
30 | 10 to 50 | Cc1cnc(N2CC3(CCOCC3)C2)c(C(=O)Nc2ccc(C(=O)N3CCc4cc(C(=O)Nc5ncns5)sc4-c4ccc(F)cc43)cc2)c1 [Example 128]
31 | < 10 | Cc1cnc(N2CC3(CCOCC3)C2)c(C(=O)Nc2ccc(C(=O)N3CCc4cc(-c5n[nH]c6ccccc56)sc4-c4ccc(F)cc43)cc2)c1 [Example 181]
32 | < 10 | O=C(Nc1c(F)cccc1F)c1cc2c(o1)-c1ccc(F)cc1N(C(=O)c1ccc(NC(=O)c3cccnc3N3CC4(CCOCC4)C3)cc1)CC2 [Example 99]
33 | < 10 | Cc1cnc(N2CC3(CCOCC3)C2)c(C(=O)Nc2ccc(C(=O)N3CCc4cc(-c5cccnc5F)sc4-c4ccc(F)cc43)cc2)c1 [Example 164]
34 | 10 to 50 | O=C(Nc1c(F)cc(F)cc1Cl)c1cc2c(s1)-c1ccc(F)cc1N(C(=O)c1ccc(NC(=O)c3cc(-c4cccs4)cnc3N3CC4(CCOCC4)C3)cc1)CC2 [Example 28]
35 | < 10 | Cc1ccc(C(=O)Nc2ccc(C(=O)N3CCc4cc(C(=O)Nc5ccccc5F)sc4-c4ccc(F)cc43)cc2)c(N2CC3(CCOCC3)C2)n1 [Example 114]
36 | < 10 | O=C(Nc1c(F)cccc1F)c1cc2c(s1)-c1ccc(F)cc1N(C(=O)c1ccc(NC(=O)c3cccnc3N3CC4(CCOCC4)C3)cc1)CC2 [Example 19]
37 | < 10 | Cc1cnc(N2CC3(CCOCC3)C2)c(C(=O)Nc2ccc(C(=O)N3CCc4cc(C(=O)Nc5nc(C)co5)sc4-c4ccc(F)cc43)cc2)c1 [Example 135]
38 | < 10 | Cc1cnc(N2CC3(CCOCC3)C2)c(C(=O)Nc2ccc(C(=O)N3CCc4c(sc(C(=O)Nc5c(F)cccc5F)c4Cl)-c4ccccc43)cc2)c1 [Example 267]
39 | > 50 | Cc1cnc(N2CC3(CCOCC3)C2)c(C(=O)Nc2ccc(C(=O)N3CCc4cc(-c5c[nH]c6c(Cl)cccc56)sc4-c4ccc(F)cc43)cc2)c1 [Example 175]
40 | < 10 | O=C(Nc1c(F)cccc1Cl)c1cc2c(s1)-c1ccc(F)cc1N(C(=O)c1ccc(NC(=O)c3cccnc3N3CC4(CCOCC4)C3)cc1)CC2 [Example 20]
41 | < 10 | O=C(Nc1c(F)cccc1Cl)c1cc2c(s1)-c1ccc(F)cc1N(C(=O)c1ccc(NC(=O)c3cc(F)cnc3N3CC4(CCOCC4)C3)cc1)CC2 [Example 37]
42 | < 10 | O=C(Nc1c(F)cccc1F)c1cc2c(o1)-c1ccc(F)cc1N(C(=O)c1ccc(NC(=O)c3cc4c(nc3N3CC5(CCOCC5)C3)CCC4)cc1)CC2 [Example 239]
43 | < 10 | Cc1cnc(N2CC3(CCOCC3)C2)c(C(=O)Nc2ccc(C(=O)N3CCc4c(sc(C(=O)Nc5c(C)cccc5F)c4F)-c4ccccc43)cc2)c1 [Example 95]

same assay, conditions: human respiratory syncytial virus, HEp-2; control compound of the RSV assay; read-out: EC50

Row | SMILES | EC50 [nM]
44 | O=C(Nc1ccccc1F)N[C@H]1N=C(c2ccccc2)c2ccccc2NC1=O [RSV-604, reference compound] | ~2400
